{
  "source": "paper PMC3196589",
  "about": "“Fluorescent Peptide Biosensor for Probing the Relative Abundance of Cyclin-Dependent Kinases in Living Cells” (PLoS ONE, 2011)",
  "assay_in_all_cases": "Live-cell ratiometric quantification of CDKSENS-Cy3/Ctrl-Cy5 fluorescence",
  "key": {"[1]": {"test_system": "CDK/Cyclins in A549 cells", "format": "cell-based", "protocol": "(§1) Cell culture media, serum and antibiotics were purchased from Invitrogen. HeLa, HS68, A549, MCF-7 and U2OS cells were obtained from ATCC and were cultured in Dulbecco's Modified Eagle Medium (DMEM)+Glutamax supplemented with 10% Fetal Calf Serum (FCS), 1 mM penicillin and 1 mM streptomycin at 37°C in an atmosphere containing 5% CO2. HT2-19 cells, provided by Dr. A.Porter, were cultured in DMEM supplemented with non essential amino acids, antibiotics, sodium pyruvate, glutamine, and 10% FCS and grown with 50 uM isopropyl-thiogalactoside (IPTG) for maximal induction of CDK1 [28]. Cell extracts were prepared in lysis buffer containing 50 mM TrisHCl, pH 7.4, 150 mM NaCl, 0.1% NP40, 0.1% Deoxycholate, 2 mM EDTA, 1 mM phenylmethlsulfonyl fluoride (PMSF), CompleteTM protease inhibitors (Roche), 50 mM NaF, 40 mM β-Glycero-phosphate, 1 mM Na3VO4 and normalized following spectrophotometric dosage at 280 nm. […] Samples were then processed for SDS-PAGE and CDK, Cyclin retention was detected by Western blotting.\n(§2) For fixed observations, cells were treated for 20 minutes with paraformaldehyde, nuclei were stained with Hoechst 33342 (Sigma), and cells were mounted with Prolong Gold AntiFade Reagent (Invitrogen). Epifluorescence images were acquired on a Leica DM6000 microscope (Leica Microsystems) piloted by the Metamorph software (Universal Imaging). For colocalization experiments, images were acquired on a Zeiss axioplan2/LSM510 META confocal microscope. Live-cell imaging was performed on a Zeiss Axiovert 200 M piloted by the Metamorph software. Images were processed with ImageJ software.\n(§3) CDKSENS-Cy3 and Ctrl-Cy5 were complexed individually with CADY2 and codelivered into cells. Live-cell imaging acquisitions were substracted for background signal corresponding to minimal fluorescence levels using Metamorph. Image J was then used for image analysis. Regions of interest (ROI) corresponding to 10–15 cells in which fluorescence appeared homogeneous were designed and the mean grey levels of fluorescence for each channel (Cy3 and Cy5) were quantified within these ROIs. For each experiment, and the mean ratiometric value of CDKSENS-Cy3/Ctrl-Cy5 was calculated from 3–4 different ROIs. Each experiment was performed 3–4 times to assess the robustness of the quantification strategy. All statistical analyses are presented by the mean and standard deviation."}, "[2]": {"test_system": "CDK/Cyclins in HeLa cells", "format": "cell-based", "protocol": "as §1, §2, §3"}, "[3]": {"test_system": "CDK/Cyclins in U20S cells", "format": "cell-based", "protocol": "as §1, §2, §3"}, "[4]": {"test_system": "CDK/Cyclins in HS68 cells", "format": "cell-based, human", "protocol": "as §1, with “[28].” for “[28]. Cell extracts were prepared in lysis buffer containing 50 mM TrisHCl, pH 7.4, 150 mM NaCl, 0.1% NP40, 0.1% Deoxycholate, 2 mM EDTA, 1 mM phenylmethlsulfonyl fluoride (PMSF), CompleteTM protease inhibitors (Roche), 50 mM NaF, 40 mM β-Glycero-phosphate, 1 mM Na3VO4 and normalized following spectrophotometric dosage at 280 nm.”, “blotting. […]” for “blotting.”\nas §3, with “Image J was then used for image analysis.” left out, “All statistical analyses are presented by the mean and standard deviation.” left out"}},
  "note": "No end group written: not given here.",
  "data": [
    {"substance": "CDKSENS-Cy3: CDKSENS labelled with cyanine probe Cy3 (C(Cy3 maleimide)DKSENS)", "values": [
      {"measurement": "Mean Ratio CDKSENS-Cy3/Ctrl-Cy5", "setting": "[1]; A549, mean +/- SD of 3 fields", "value": "5,44+/−0,16"},
      {"measurement": "Relative Mean Ratiometric Value", "setting": "[1]; A549, normalized to HeLa mean", "value": "0.81+/−0,024"},
      {"measurement": "decrease of CDKSENS-Cy3/Ctrl-Cy5 values, A549 vs HeLa", "setting": "[1]; A549 compared to HeLa, range stated jointly for A549 and MCF7", "value": "18–20%"},
      {"measurement": "Mean Ratio CDKSENS-Cy3/Ctrl-Cy5", "setting": "[2]; HeLa (A549 experiment), mean +/- SD of 3 fields", "value": "6,72+/−0,37"},
      {"measurement": "Relative Mean Ratiometric Value", "setting": "[2]; HeLa (A549 experiment), normalized to highest mean", "value": "1+/−0,054"},
      {"measurement": "Relative Mean Ratiometric Value", "setting": "[2]; HeLa (HS68 experiment), normalized to highest mean", "value": "1+/−0,039"},
      {"measurement": "Mean Ratio CDKSENS-Cy3/Ctrl-Cy5", "setting": "[2]; HeLa (MCF7 experiment), mean +/- SD of 4 fields", "value": "7,29+/−0,39"},
      {"measurement": "Relative Mean Ratiometric Value", "setting": "[2]; HeLa (MCF7 experiment), normalized to highest mean", "value": "1+/−0,053"},
      {"measurement": "Relative Mean Ratiometric Value", "setting": "[2]; HeLa (U20S experiment), HeLa set to 1", "value": "1+/−0,079"},
      {"measurement": "Mean Ratio CDKSENS-Cy3/Ctrl-Cy5", "setting": "[2]; HeLa (U20S experiment), mean +/- SD of 4 fields", "value": "6,79+/−0,53"},
      {"measurement": "difference in CDKSENS-Cy3/Ctrl-Cy5 ratio, U20S vs HeLa", "setting": "[3]; U20S compared to HeLa", "value": "did not reveal a significant difference"},
      {"measurement": "Mean Ratio CDKSENS-Cy3/Ctrl-Cy5", "setting": "[3]; U20S, mean +/- SD of 4 fields", "value": "7,16+/−0,65"},
      {"measurement": "Relative Mean Ratiometric Value", "setting": "[4]; HS68, normalized to HeLa mean", "value": "0.85+/−0,048"},
      {"measurement": "average difference in CDKSENS-Cy3/Ctrl-Cy5 ratio, HeLa greater than HS68", "setting": "[4]; HeLa vs HS68, average", "value": 15, "unit": "%"}
    ]}
  ]
}
